Test results: patent EP4711372A1, “CRYSTAL FORM OF HETEROCYCLIC COMPOUND, SALT THEREOF, CRYSTAL FORM OF SALT THEREOF, AND USE” (Hubei Bio-Pharmaceutical Industrial Technological Institute …, priority 2023, dated 2024)
Converted amounts (≈) assume the structure as drawn. Where two headings read alike, the source gives them in different places. Values belong to the compound of their own block, whether it stands above or below them.

Tests used:
[1] = Dynamic solubility test of crystal forms in H2O, SGF, FaSSIF and FeSSIF; format: physicochemical; conditions: 37°C; for S: concentration of the compound represented by formula I-3B / solubility thermodynamic at 24 h: loading 10 mg/mL; for solubility thermodynamic at 24 h: read-out: S: concentration of the compound represented by formula I-3B; for FC: crystal form conversion: XRPD; for pH: filtrate
Protocol: (§1) The purity test, dynamic solubility test, and stability test in the assay were performed using an ultra-performance liquid chromatograph (UPLC).
After sampling at each time point, the samples were centrifuged (12,000 rpm, 2 minutes) and filtered (0.45 µm PTFE membrane), and the HPLC concentration and pH value of the filtrate were measured. The solid samples after centrifugation were tested for XRPD.

[2] = system: mouse IPF prevention model; experiment: Efficacy test on mouse IPF prevention model (Bleomycin-induced); format: in vivo, mice; conditions: mean; Nintedanib 60 mg/kg qd, oral gavage, 21 consecutive days
Protocol: Male mice were adaptively fed for 1 to 2 weeks and after reaching the standard weight (25 g), the IPF model (idiopathic pulmonary fibrosis model) was induced with a certain dose of Bleomycin. On the day of modeling, the animals were randomly divided into a model group and an administration group according to their weight, in which the administration groups were administered Nintedanib (60 mg/kg, once a day (qd)) and compound I-3B obtained in Example 1 (2.5 mg/kg, twice a day (bid)) by oral gavage for 21 consecutive days while the vehicle control group was administered blank vehicle. During the administration period, the animals were weighed every 3 days. At the end of the last day of administration, the animals were euthanized. The lungs were removed from the thyroid cartilage (without perfusion), slowly perfused with 10% formalin until both lungs were filled, and fixed in 10% formalin 5 to 10 times the volume of the tissues after the trachea was ligated. The left lung tissues were embedded in paraffin wax, sectioned, and stained with HE and Masson Trichrome. The sections were subjected to panoramic scanning using a Hamamatsu NanoZoomer Digital Pathology (S210) slide scanner for pathological analysis.

[3] = system: mouse IPF treatment model; experiment: Efficacy test on mouse IPF treatment model (Bleomycin-induced); format: in vivo, mice; conditions: mean; Nintedanib 60 mg/kg qd, oral gavage, 14 consecutive days from day 7
Protocol: Male mice were adaptively fed for 1 to 2 weeks and after reaching the standard weight (25 g), the IPF model (idiopathic pulmonary fibrosis model) was induced with a certain dose of Bleomycin. On the day of modeling, the animals were randomly divided into a model group and an administration group according to their weight, in which the administration groups were administered Nintedanib (60 mg/kg, qd), low-dose compound I-3B obtained in Example 1 (1 mg/kg, bid), and high-dose compound I-3B obtained in Example 1 (2.5 mg/kg, bid) by oral gavage for 14 consecutive days starting from day 7 while the vehicle control group was administered blank vehicle. During the administration period, the animals were weighed twice a week. At the end of the last day of administration, the animals were euthanized. The lungs were removed from the thyroid cartilage (without perfusion), slowly perfused with 10% formalin until both lungs were filled, and fixed in 10% formalin 5 to 10 times the volume of the tissues after the trachea was ligated. The left lung tissues were embedded in paraffin wax, sectioned, and stained with HE and Masson Trichrome. The sections were subjected to panoramic scanning using a Hamamatsu NanoZoomer Digital Pathology (S210) slide scanner for pathological analysis.

15-PGDH = molecular target: T1, 15-PGDH (Homo sapiens, UniProt P15428); experiment: 15-PGDH enzyme inhibition assay (fluorescence, NAD+/PGE2); format: biochemical; conditions: 15-PGDH inhibition
T1 construct: purchased R&D Systems 5660-DH-010
T1 sequence (P15428 1-266): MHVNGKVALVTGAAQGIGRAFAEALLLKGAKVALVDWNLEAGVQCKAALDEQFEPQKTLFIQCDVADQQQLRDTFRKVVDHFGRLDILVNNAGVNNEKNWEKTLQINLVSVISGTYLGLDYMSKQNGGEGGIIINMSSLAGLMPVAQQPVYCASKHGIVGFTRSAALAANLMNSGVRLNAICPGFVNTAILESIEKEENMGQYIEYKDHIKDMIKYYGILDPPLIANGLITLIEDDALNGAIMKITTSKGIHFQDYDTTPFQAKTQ
Protocol: 15-PGDH (R&D Systems, Cat. No. 5660-DH-010) was prepared to twice the final concentration, i.e., 30 nM, using Assay Buffer (50 mM Tris-HCl, pH 7.5, 0.01% Tween 20 by volume). 15-PGDH was then added to a 384-well white plate (Cisbio Bioassays, Cat. No. 66PL384025) at 8 µL/well. Negative control wells (with Assay Buffer only and without enzyme) were set. The compound was then prepared to 4 times the final concentration using Assay Buffer, i.e., diluted 3-fold to 10 concentrations starting from 4000 nM. The compound was added to the above white plate at 4 µL/well, mixed well, centrifuged at 1000 rpm for 1 minute, and incubated at 25°C for 10 minutes. Both positive control wells (with 15-PGDH only) and negative control wells (without 15-PGDH) were set. A mixture of NAD^+ (Select, Cat. No. S2518) and PGE2 (R&D Systems, Cat. No.:2296110) was then prepared using Assay Buffer. NAD^+ and PGE2 were prepared to four times their final concentrations, i.e., 2 mM and 0.12 mM, respectively, using Assay Buffer. The mixture was then added to the above white plate at 4 µL/well, mixed well, centrifuged at 1000 rpm for 1 minute, and incubated at 25°C for 30 minutes for the reaction. The fluorescence was measured at an excitation wavelength of 340 nm and an emission wavelength of 485 nm using a TECAN SPARK 20M microplate reader. The IC50 value was calculated using four-parameter fitting with GraphPad Prism 8.0.

[4] = Pharmacokinetics in mice (oral gavage); format: in vivo; conditions: mouse, plasma, male CD-1 mice, 10 mg/kg
Protocol: The pharmacokinetic properties of the compounds obtained in Example 1 in mice were determined with reference to the following experimental methods.
Three male CD-1 mice were administered by oral gavage at a dose of 10 mg/kg, and the vehicle was 5% DMSO + 10% Solutol + 85% Saline. The mice were fasted overnight, and the time points of blood collection were before administration and at 15 minutes, 30 minutes, 1 hour, 2 hours, 4 hours, 8 hours, and 24 hours after administration. Blood samples were centrifuged at 6,800 g for 6 minutes at 2 to 8°C, and plasma was collected and stored at - 80°C. 10 µL of plasma at each time point was taken and added with 200 µL of methanol containing 100 ng/mL internal standard. The mixture was vortexed, mixed well, and centrifuged at 18,000 g for 7 minutes at 2 to 8°C. 200 µL of the mixture was transferred to a 96-well injection plate for LC-MS/MS quantitative analysis. The main pharmacokinetic parameters were analyzed using WinNonlin 7.0 software with non-compartmental model.

[5] = Solid-state stability evaluation test (XRPD and HPLC); format: physicochemical
Protocol: as §1
Their physical and chemical stability were evaluated by XRPD and HPLC.

[6] = Hygroscopicity test (DVS); format: physicochemical
Protocol: Dynamic vapor sorption (DVS) curves were collected on DVS Intrinsic Plus from SMS (Surface Measurement Systems). The relative humidity at 25°C was corrected using the deliquescence points of LiCl, Mg(NO3)2, and KCl.

SMILES: Cn1nc2cc(N3C[C@H]4C[C@H]4c4cc(C(=O)N5CCC(F)(F)CC5)cnc43)ccn2c1=O [listing 1 of 2 here]
S: concentration of the compound represented by formula I-3B ([1]; FaSSIF, 1 hour): 2.6 mg/mL | S: concentration of the compound represented by formula I-3B ([1]; FaSSIF, 4 hours): 2.5 mg/mL | solubility thermodynamic at 24 h ([1]; FaSSIF, 24 hours): 2.7 mg/mL (≈ 6.13 mM) | S: concentration of the compound represented by formula I-3B ([1]; FeSSIF, 1 hour): 3.0 mg/mL | S: concentration of the compound represented by formula I-3B ([1]; FeSSIF, 4 hours): 3.4 mg/mL | solubility thermodynamic at 24 h ([1]; FeSSIF, 24 hours): 3.9 mg/mL (≈ 8.85 mM) | S: concentration of the compound represented by formula I-3B ([1]; H2O, 1 hour): 3.3 mg/mL | S: concentration of the compound represented by formula I-3B ([1]; H2O, 4 hours): 2.6 mg/mL | S: concentration of the compound represented by formula I-3B ([1]; SGF, 1 hour): 5.3 mg/mL | S: concentration of the compound represented by formula I-3B ([1]; SGF, 4 hours): 5.1 mg/mL | FC: crystal form conversion ([1]; FaSSIF, 1 hour): No | FC: crystal form conversion ([1]; FaSSIF, 4 hours): No | FC: crystal form conversion ([1]; FaSSIF, 24 hours): No | FC: crystal form conversion ([1]; FeSSIF, 1 hour): No | FC: crystal form conversion ([1]; FeSSIF, 4 hours): No | FC: crystal form conversion ([1]; FeSSIF, 24 hours): No | FC: crystal form conversion ([1]; H2O, 1 hour): No | FC: crystal form conversion ([1]; H2O, 4 hours): No | FC: crystal form conversion ([1]; H2O, 24 hours): No | FC: crystal form conversion ([1]; SGF, 1 hour): No | FC: crystal form conversion ([1]; SGF, 4 hours): No | FC: crystal form conversion ([1]; SGF, 24 hours): No | pH ([1]; FaSSIF, 1 hour): 6.46 | pH ([1]; FaSSIF, 4 hours): 6.60 | pH ([1]; FaSSIF, 24 hours): 6.70 | pH ([1]; FeSSIF, 1 hour): 4.91 | pH ([1]; FeSSIF, 4 hours): 4.96 | pH ([1]; FeSSIF, 24 hours): 4.93 | pH ([1]; H2O, 1 hour): 8.57 | pH ([1]; H2O, 4 hours): 8.59 | pH ([1]; H2O, 24 hours): 8.95 | pH ([1]; SGF, 1 hour): 1.82 | pH ([1]; SGF, 4 hours): 1.94 | pH ([1]; SGF, 24 hours): 2.11 | solubility thermodynamic at 24 h ([1]; simulated gastric fluid, SGF, 24 hours): 4.7 mg/mL (≈ 10.7 mM) | solubility thermodynamic at 24 h ([1]; water, H2O, 24 hours): 0.9 mg/mL (≈ 2.04 mM)

SMILES: COC(=O)c1ccc2c(c1)NC(=O)/C2=C(\Nc1ccc(N(C)C(=O)CN2CCN(C)CC2)cc1)c1ccccc1 [Nintedanib, reference compound]
Total pulmonary fibrosis score [2]: 3.39 | Total pulmonary fibrosis score [3]: 2.84

SMILES: Cn1nc2cc(N3C[C@H]4C[C@H]4c4cc(C(=O)N5CCC(F)(F)CC5)cnc43)ccn2c1=O [listing 2 of 2 here]
HPLC purity ([5]; peak at RRT 0.52 (impurity), 25°C/60% RH/open/1 week): 0.22 area% | HPLC purity ([5]; peak at RRT 0.52 (impurity), 40°C/75% RH/open/1 week): 0.22 area% | HPLC purity ([5]; peak at RRT 0.52 (impurity), 60°C/closed/1 day): 0.22 area% | HPLC purity ([5]; peak at RRT 0.52 (impurity), Onset): 0.22 area% | HPLC purity ([5]; peak at RRT 0.97 (impurity), 25°C/60% RH/open/1 week): 0.10 area% | HPLC purity ([5]; peak at RRT 0.97 (impurity), 40°C/75% RH/open/1 week): 0.09 area% | HPLC purity ([5]; peak at RRT 0.97 (impurity), 60°C/closed/1 day): 0.10 area% | HPLC purity ([5]; peak at RRT 0.97 (impurity), Onset): 0.10 area% | moisture absorption weight gain ([6]; 25°C/80% RH): 1.112% | change in crystal form after DVS testing (XRPD) ([6]; before and after DVS testing): no change in crystal form

The next lines start with the values.

IC50 (15-PGDH): 4.2 nM | AUC(0-t) [4]: 35.5 µg·h/mL | Cmax [4]: 3.71 µg/mL
SMILES: Cn1nc2cc(N3CC4CC4c4cc(C(=O)N5CCC(F)(F)CC5)cnc43)ccn2c1=O (stereo not shown) [compound I-3, 7-(6-(4,4-difluoropiperidine-1-carbonyl)-1,1a,2,7b-tetrahydro-3H-cyclopropa[c][1,8]naphthyridin-3-yl)-2-methyl-[1,2,4]triazolo[4,3-a]pyridin-3(2H)-one]

IC50 (15-PGDH): 12.2 nM
SMILES: Cn1nc2cc(N3CC4CC4c4cc(C(=O)N5CCC(F)(F)CC5)cnc43)ccn2c1=O (stereo not shown) [compound I-3A]
